31 molecules from patent US7388017B2, “Inhibitors of serine proteases, particularly hepatitis C virus NS3 protease” (Vertex Pharmaceuticals Incorporated, priority 1996, dated 2008) can be followed below.

Structures are written as SMILES. Starred links: 1 amine or outer side, 2 acyl side, 3 side chain; linkers in the order of their positions; H or OH if unused. Non-standard residues stand in square brackets, D forms with d. Residues, ends and D or L forms follow the SMILES beside them. Groups on a side chain read outwards from the residue. *: point of attachment. NH(1,3-benzodioxol-5-yl) = c1cc2c(cc1N*)OCO2; X19 = O=[N+]([O-])c1cc(N*)ccc1N1CCCCC1; Pyrazinecarbonyl = O=C(c1cnccn1)*; X30 = O=[N+]([O-])c1cccc(N*)c1; pNA = O=[N+]([O-])c1ccc(N*)cc1; X28 = c1ccc(Oc2cccc(N*)c2)cc1; Hyp = O=C(O)[CH]1C[CH](O)CN1; NH(3-MeOPh) = COc1cccc(N*)c1; X3 = c1ccc(-c2ccccc2N*)cc1; 3Abz = Nc1cccc(C(=O)O)c1; X18 = CC(=O)c1cccc(N*)c1; X39 = CC(=O)c1ccc(N*)cc1; X43 = Clc1cc(N*)cc(Cl)n1; X6 = Nc1c(Cl)cc(N*)cc1Cl; X17 = c1nc2ccc(N*)cc2s1; X9 = COc1ccc(OC)c(N*)c1; 2Abz = Nc1ccccc1C(=O)O; X14 = Clc1ccc(N*)cc1Cl; X46 = Clc1cccc(Cl)c1N*; Abu = CC[CH](N)C(=O)O; X34 = N#Cc1cccc(N*)c1; X38 = CC(C)c1ccccc1N*; CO = O=C([*:1])[*:2]; NHBn = c1ccc(CN*)cc1; X47 = COc1ccccc1N* Bounds are passed on as bounds.

In the assay the target is T1, HCV NS3 protease (Hepatitis C virus genotype 1a, UniProt P27958).
T1 construct: more particularly HCV NS3 proteases
T1 sequence (P27958 1027-1208): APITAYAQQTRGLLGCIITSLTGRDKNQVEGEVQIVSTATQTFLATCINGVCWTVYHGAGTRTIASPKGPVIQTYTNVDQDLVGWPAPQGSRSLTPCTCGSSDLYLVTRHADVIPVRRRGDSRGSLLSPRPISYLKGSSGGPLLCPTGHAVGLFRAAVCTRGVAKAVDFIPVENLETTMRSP
Briefly: Enzyme inhibition of HCV NS3 serine protease (cleavage of peptide substrate / EDVV AbuC-p-nitroanilide, with or without NS4A). The format is biochemical. The following applies: Enzyme inhibition data; Ki from rate vs [inhibitor] plots, Morrison tight binding competitive inhibition fit; 30 C, pH 7.8; read-out: Ki. The protocol: Cleavage reactions were quenched by the addition of an equal volume of a mixture of 10% TFA:acetonitrile (1:1) and activity was assessed on a reversed phase HPLC column (Rainin C18 Microsorb-MV, […], 4.6×250 mm; 0-50% acetonitrile, 0.1% TFA@ 3.33% min) using a Hewlett Packard 1050 instrument with auto-injection and diode array detection at 210 nm and 280 nm (where appropriate). Peptide elution fragments were collected and identified by mass spectrometry and N-terminal sequence analysis. Fragment identity and concentration was further verified by authentic, synthesized products. Initial rates of cleavage were determined at <20% substrate conversion and catalytic parameters were determined assuming Michaelis-Menten kinetics using the MultiFit program (Day Computing, Cambridge, Mass.).
Spectrophotometric assays were run in a 96-well microtiter plate at 30 C, using a SpectraMax 250 reader (Molecular Devices, Sunnyvale, Calif.) with kinetic capability. Cleavage of EDVV AbuC-p-nitroanilide (5A-pNA) substrate was performed with or without […] in the same buffer used for HPLC assays at 30 C, and pNA release was monitored at 405 nm. The extinction-coefficient of p-nitroaniline is independent of pH at values of 5.5. and above [Tuppy, H., et al., Hoppe-Seyler's Z. Physiol. Chem., 329, pp. 278-288 (1962)]; Raybuck and Luong, unpublished observations).
Kinetic constants for the rapid equilibrium ordered bisubstrate reaction were determined from rate vs [4A], [EDVV AbuC-pNA] data by non-linear least squares fitting to equation 1 [Morrison, J. F. Biochim. Biophys. Acta, 185, pp. 269-286 (1969)] as described in the text. Kii and Kis values for peptidyl inhibitors were determined from rate vs [inhibitor], [substrate] data and fitting to the equation for mixed inhibition: rate=Vmax[S]/{Km(1+[I]/Kis)+[S](1+[I]/Kii)} The commercial program KinetAsyst (StateCollege, Pa.) was used for both procedures. Ki values were calculated from rate vs [inhibitor] plots by a nonlinear least squares fit of the data to the equation of Morrison for tight binding competitive inhibition [Morrison, J. F. Biochim. Biophys. Acta, 185, pp. 269-286 (1969)]. The KineTic program (BioKin Ltd) was used for this procedure.
Ki values are expressed in μM. Category “A” indicates <1 μM inhibition; category “B” indicates 1-100 μM inhibition; category “C” indicates >100 μM.
In the case of `CCC(C=O)NC(=O)C1CC(OC(=O)Nc2cc(Cl)c(N)c(Cl)c2)CN1C(=O)C(NC(=O)C(NC(=O)c1cnccn1)C(C)C)C(C)C` (stereo not shown) [Compound 33] (Pyrazinecarbonyl-VV[Hyp]([CO-X6])[Abu]-aldehyde; configuration not given here), the Ki (commonly the equilibrium dissociation constant of an inhibitor or competing ligand from its target) is over 100 µM.

For `CCC(C=O)NC(=O)C1CC(OC(=O)Nc2ccc(N3CCCCC3)c([N+](=O)[O-])c2)CN1C(=O)C(NC(=O)C(NC(=O)c1cnccn1)C(C)C)C(C)C` (stereo not shown) [Compound 34] (Pyrazinecarbonyl-VV[Hyp]([CO-X19])[Abu]-aldehyde; configuration not given here), the Ki fell in the range of 1 to 100 µM.

Take `CCC(C=O)NC(=O)C1CC(OC(=O)Nc2ccc3ncsc3c2)CN1C(=O)C(NC(=O)C(NC(=O)c1cnccn1)C(C)C)C(C)C` (stereo not shown) [Compound 35] (Pyrazinecarbonyl-VV[Hyp]([CO-X17])[Abu]-aldehyde; configuration not given here): the Ki lay within 1 to 100 µM.

With `CCC(C=O)NC(=O)C1CC(OC(=O)Nc2cccc(C(C)=O)c2)CN1C(=O)C(NC(=O)C(NC(=O)c1cnccn1)C(C)C)C(C)C` (stereo not shown) [Compound 36] (Pyrazinecarbonyl-VV[Hyp]([CO-X18])[Abu]-aldehyde; configuration not given here), the Ki is over 100 µM.

Take `CCC(C=O)NC(=O)C1CC(OC(=O)Nc2ccc(C(C)=O)cc2)CN1C(=O)C(NC(=O)C(NC(=O)c1cnccn1)C(C)C)C(C)C` (stereo not shown) [Compound 37] (Pyrazinecarbonyl-VV[Hyp]([CO-X39])[Abu]-aldehyde; configuration not given here): the Ki was 1 to 100 µM.

Regarding `CCC(C=O)NC(=O)C1CC(OC(=O)Nc2cccc(C#N)c2)CN1C(=O)C(NC(=O)C(NC(=O)c1cnccn1)C(C)C)C(C)C` (stereo not shown) [Compound 38] (Pyrazinecarbonyl-VV[Hyp]([CO-X34])[Abu]-aldehyde; configuration not given here), the Ki was 1 to 100 µM.

Take `CCC(C=O)NC(=O)C1CC(OC(=O)Nc2ccc([N+](=O)[O-])cc2)CN1C(=O)C(NC(=O)C(NC(=O)c1cnccn1)C(C)C)C(C)C` (stereo not shown) [Compound 39] (Pyrazinecarbonyl-VV[Hyp]([CO-pNA])[Abu]-aldehyde; configuration not given here): the inhibition constant (Ki) was in the range of 1 to 100 µM.

As to `CCC(C=O)NC(=O)C1CC(OC(=O)Nc2cccc([N+](=O)[O-])c2)CN1C(=O)C(NC(=O)C(NC(=O)c1cnccn1)C(C)C)C(C)C` (stereo not shown) [Compound 40] (Pyrazinecarbonyl-VV[Hyp]([CO-X30])[Abu]-aldehyde; configuration not given here), the Ki was 1 to 100 µM.

Consider `CCC(C=O)NC(=O)C1CC(OC(=O)Nc2cc(OC)ccc2OC)CN1C(=O)C(NC(=O)C(NC(=O)c1cnccn1)C(C)C)C(C)C` (stereo not shown) [Compound 41] (Pyrazinecarbonyl-VV[Hyp]([CO-X9])[Abu]-aldehyde; configuration not given here), for which the Ki was in the range of 1 to 100 µM.

On to `CCC(C=O)NC(=O)C1CC(OC(=O)Nc2cccc(OC)c2)CN1C(=O)C(NC(=O)C(NC(=O)c1cnccn1)C(C)C)C(C)C` (stereo not shown) [Compound 42] (Pyrazinecarbonyl-VV[Hyp]([CO-NH(3-MeOPh)])[Abu]-aldehyde; configuration not given here), for which the Ki lay within 1 to 100 µM.

With `CCC(C=O)NC(=O)C1CC(OC(=O)Nc2ccccc2OC)CN1C(=O)C(NC(=O)C(NC(=O)c1cnccn1)C(C)C)C(C)C` (stereo not shown) [Compound 43] (Pyrazinecarbonyl-VV[Hyp]([CO-X47])[Abu]-aldehyde; configuration not given here), the Ki lay in the range of 1 to 100 µM.

In the case of `CCC(C=O)NC(=O)C1CC(OC(=O)Nc2ccc3c(c2)OCO3)CN1C(=O)C(NC(=O)C(NC(=O)c1cnccn1)C(C)C)C(C)C` (stereo not shown) [Compound 44] (Pyrazinecarbonyl-VV[Hyp]([CO-NH(1,3-benzodioxol-5-yl)])[Abu]-aldehyde; configuration not given here), the Ki lay in the range of 1 to 100 µM.

As for `CCC(C=O)NC(=O)C1CC(OC(=O)Nc2c(Cl)cccc2Cl)CN1C(=O)C(NC(=O)C(NC(=O)c1cnccn1)C(C)C)C(C)C` (stereo not shown) [Compound 45] (Pyrazinecarbonyl-VV[Hyp]([CO-X46])[Abu]-aldehyde; configuration not given here), the Ki was in the range of 1 to 100 µM.

As to `CCC(C=O)NC(=O)C1CC(OC(=O)Nc2ccc(Cl)c(Cl)c2)CN1C(=O)C(NC(=O)C(NC(=O)c1cnccn1)C(C)C)C(C)C` (stereo not shown) [Compound 46] (Pyrazinecarbonyl-VV[Hyp]([CO-X14])[Abu]-aldehyde; configuration not given here), the Ki was in the range of 1 to 100 µM.

Regarding `CCC(C=O)NC(=O)C1CC(OC(=O)NCc2ccccc2)CN1C(=O)C(NC(=O)C(NC(=O)c1cnccn1)C(C)C)C(C)C` (stereo not shown) [Compound 50] (Pyrazinecarbonyl-VV[Hyp]([CO-NHBn])[Abu]-aldehyde; configuration not given here), the Ki is 1 to 100 µM.

With `CCC(C=O)NC(=O)C1CC(OC(=O)Nc2cc(Cl)nc(Cl)c2)CN1C(=O)C(NC(=O)C(NC(=O)c1cnccn1)C(C)C)C(C)C` (stereo not shown) [Compound 51] (Pyrazinecarbonyl-VV[Hyp]([CO-X43])[Abu]-aldehyde; configuration not given here), the Ki was 1 to 100 µM.

Turning to `CCC(C=O)NC(=O)C1CC(OC(=O)Nc2ccccc2-c2ccccc2)CN1C(=O)C(NC(=O)C(NC(=O)c1cnccn1)C(C)C)C(C)C` (stereo not shown) [Compound 52] (Pyrazinecarbonyl-VV[Hyp]([CO-X3])[Abu]-aldehyde; configuration not given here), the Ki was in the range of 1 to 100 µM.

Turning to `CCC(C=O)NC(=O)C1CC(OC(=O)Nc2cccc(Oc3ccccc3)c2)CN1C(=O)C(NC(=O)C(NC(=O)c1cnccn1)C(C)C)C(C)C` (stereo not shown) [Compound 53] (Pyrazinecarbonyl-VV[Hyp]([CO-X28])[Abu]-aldehyde; configuration not given here), the Ki was in the range of 1 to 100 µM.

For `CCC(C=O)NC(=O)C1CC(OC(=O)Nc2ccccc2C(C)C)CN1C(=O)C(NC(=O)C(NC(=O)c1cnccn1)C(C)C)C(C)C` (stereo not shown) [Compound 54] (Pyrazinecarbonyl-VV[Hyp]([CO-X38])[Abu]-aldehyde; configuration not given here), the Ki was in the range of 1 to 100 µM.

For `CCC(C=O)NC(=O)C1CC(OC(=O)Nc2ccccc2C(=O)OC)CN1C(=O)C(NC(=O)C(NC(=O)c1cnccn1)C(C)C)C(C)C` (stereo not shown) [Compound 55] (Pyrazinecarbonyl-VV[Hyp]([CO-2Abz-OMe])[Abu]-aldehyde; configuration not given here), the Ki fell in the range of 1 to 100 µM.

In the case of `CCOC(=O)c1cccc(NC(=O)OC2CC(C(=O)NC(C=O)CC)N(C(=O)C(NC(=O)C(NC(=O)c3cnccn3)C(C)C)C(C)C)C2)c1` (stereo not shown) [Compound 56] (Pyrazinecarbonyl-VV[Hyp]([CO-3Abz-OEt])[Abu]-aldehyde; configuration not given here), the Ki was over 100 µM.

As for `CCC(C=O)NC(=O)C1CC(NC(=O)c2ccc(Cl)c(Cl)c2)CN1C(=O)C(NC(=O)C(NC(=O)c1cnccn1)C(C)C)C(C)C` (stereo not shown) [Compound 57], the Ki fell in the range of 1 to 100 µM.

`CCC(C=O)NC(=O)C1CC(NC(=O)NCc2ccccc2)CN1C(=O)C(NC(=O)C(NC(=O)c1cnccn1)C(C)C)C(C)C` (stereo not shown) [Compound 58]: the Ki lay in the range of 1 to 100 µM.

Take `CCC(C=O)NC(=O)C1CC(NC(=O)N2CCOCC2)CN1C(=O)C(NC(=O)C(NC(=O)c1cnccn1)C(C)C)C(C)C` (stereo not shown) [Compound 59]: the Ki was 1 to 100 µM.

In the case of `CCC(C=O)NC(=O)C1CC(NC(=O)OCc2ccccc2)CN1C(=O)C(NC(=O)C(NC(=O)c1cnccn1)C(C)C)C(C)C` (stereo not shown) [Compound 60], the Ki is over 100 µM.

For `C=CCOC(=O)NC1CC(C(=O)NC(C=O)CC)N(C(=O)C(NC(=O)C(NC(=O)c2cnccn2)C(C)C)C(C)C)C1` (stereo not shown) [Compound 61], the Ki was over 100 µM.

For `CCC(C=O)NC(=O)C1CC(NC(=O)c2ccccc2)CN1C(=O)C(NC(=O)C(NC(=O)c1cnccn1)C(C)C)C(C)C` (stereo not shown) [Compound 62], the Ki lay within 1 to 100 µM.

For `CCC(C=O)NC(=O)C1CC(NC(=O)CCc2ccccc2)CN1C(=O)C(NC(=O)C(NC(=O)c1cnccn1)C(C)C)C(C)C` (stereo not shown) [Compound 63], the Ki is 1 to 100 µM.

Take `CCC(C=O)NC(=O)C1CC(NC(=O)C(=O)c2ccccc2)CN1C(=O)C(NC(=O)C(NC(=O)c1cnccn1)C(C)C)C(C)C` (stereo not shown) [Compound 64]: the inhibition constant Ki lay in the range of 1 to 100 µM.

Turning to `CCC(C=O)NC(=O)C1CC(NS(=O)(=O)Cc2ccccc2)CN1C(=O)C(NC(=O)C(NC(=O)c1cnccn1)C(C)C)C(C)C` (stereo not shown) [Compound 65], the Ki was 1 to 100 µM.

As to `CCC(C=O)NC(=O)C1CC(NCc2ccccc2)CN1C(=O)C(NC(=O)C(NC(=O)c1cnccn1)C(C)C)C(C)C` (stereo not shown) [Compound 67], the Ki is over 100 µM.
